In general, melting point refers to the temperature, or range, at which the solid turns liquid.

SMILES strings stand for the structures. Structures can show the parent of a compound that is named as a salt.

The results in this text go back to US6376488B1, “Benzoxazine α-1 adrenergic compounds” (Abbott Laboratories, priority 2000, dated 2002).

`COc1cccc2c1N1CCN(CCCCn3c(=O)[nH]c4c(sc5ncccc54)c3=O)CC1CO2` (single isomer, unassigned; (-)) (as salt: hydrochloride) [Example 11, (−) 3-[4-(10-methoxy-1,2,4a,5-tetrahydropyrazino[2,1-c][1,4]benzoxazin-3(4H)-yl)butyl]pyrido[3′,2′:4.5]thieno[3,2-d]pyrimidine-2,4(1H,3H)-dione trihydrochloride]: the melting point fell in the range of 207 to 210 °C. `COc1cccc2c1N1CCN(CCCCn3c(=O)[nH]c4c(sc5cccnc54)c3=O)CC1CO2` (single isomer, unassigned; (+)) (as salt: hydrochloride) [Example 14, (+) 3-[4-(10-methoxy-1,2,4a,5-tetrahydropyrazino[2,1-c][1,4]benzoxazin-3(4H)-yl)butyl]pyido [2′,3′:4,5]thieno[3,2-d]pyrimidine-2,4(1H,3H)-dione trihydrochloride] gave a melting point of 280 to 282 °C. Next, `O=c1[nH]c2c(sc3cccnc32)c(=O)n1CCCCN1CCN2c3ccccc3OCC2C1` (single isomer, unassigned; (-)) (as salt: hydrochloride) [Example 4, (−) 3-[4-(1.2,4a,5-tetrahydropyrazino[2,1-c][1,4benzoxazin-3(4H)-yl)butyl]pyrido[2′,3′:4,5]thieno[3,2-d]pyrimidine-2,4(1H,3H)-dione dihydrochloride]: 282 to 284 °C.
